Test results as given in BindingDB's records for doi:10.1021/bi900167q (Duke University, 2009).

molecular target: T1, UDP-3-O-acyl-N-acetylglucosamine deacetylase (Escherichia coli (strain K12), UniProt P0A725); assay: LpxC Assay
T1 sequence (P0A725 whole entry): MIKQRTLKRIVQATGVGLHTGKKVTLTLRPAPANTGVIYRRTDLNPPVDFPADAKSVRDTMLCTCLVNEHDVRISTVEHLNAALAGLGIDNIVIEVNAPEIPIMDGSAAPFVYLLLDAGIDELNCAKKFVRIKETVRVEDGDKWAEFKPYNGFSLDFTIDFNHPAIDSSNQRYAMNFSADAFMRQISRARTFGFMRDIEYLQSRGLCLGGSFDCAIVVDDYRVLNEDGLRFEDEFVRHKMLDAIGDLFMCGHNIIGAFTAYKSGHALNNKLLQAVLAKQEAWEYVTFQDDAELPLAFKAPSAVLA
Description: Inhibition assay using E. coli LpxC.

Compared with `O=c1ccn(C2OC(CO/N=C/c3ccc(O)c(O)c3O)C(O)C2O)c(=O)[nH]1` (stereo not given) [1-68A analogue], `O=c1ccn(C2OC(CO/N=C/c3cccc(O)c3O)C(O)C2O)c(=O)[nH]1` (stereo not given) [1-68Ac analogue] is higher in IC50: 27 µM for the first, greater than 500 µM for the second.

First: O=c1ccn(C2OC(CO/N=C/c3ccc(O)c(O)c3)C(O)C2O)c(=O)[nH]1 (stereo not given) [1-68Aa analogue]
Second: O=c1ccn(C2OC(CO/N=C/c3cc(O)c(O)c(O)c3)C(O)C2O)c(=O)[nH]1 (stereo not given) [1-68Ad analogue]
The IC50 of the first is lower: 30 µM for the first, greater than 500 µM for the second. The first is the more potent here.

For `O=C(CO/N=C/c1ccc(O)c(O)c1O)NCC1OC(n2ccc(=O)[nH]c2=O)C(O)C1O` (stereo not given) [2-68A analogue], the IC50 was 120 µM.
